Laboratory results as given in paper doi:10.1101/2023.11.24.568596v1 (biorxiv, 2023).

Tests used:
Details in all cases: binder
[1] = target: FGFR2 (Homo sapiens, UniProt P21802)
[2] = target: T1, PLK4 (Homo sapiens, UniProt O00444)
T1 sequence (O00444 1-970): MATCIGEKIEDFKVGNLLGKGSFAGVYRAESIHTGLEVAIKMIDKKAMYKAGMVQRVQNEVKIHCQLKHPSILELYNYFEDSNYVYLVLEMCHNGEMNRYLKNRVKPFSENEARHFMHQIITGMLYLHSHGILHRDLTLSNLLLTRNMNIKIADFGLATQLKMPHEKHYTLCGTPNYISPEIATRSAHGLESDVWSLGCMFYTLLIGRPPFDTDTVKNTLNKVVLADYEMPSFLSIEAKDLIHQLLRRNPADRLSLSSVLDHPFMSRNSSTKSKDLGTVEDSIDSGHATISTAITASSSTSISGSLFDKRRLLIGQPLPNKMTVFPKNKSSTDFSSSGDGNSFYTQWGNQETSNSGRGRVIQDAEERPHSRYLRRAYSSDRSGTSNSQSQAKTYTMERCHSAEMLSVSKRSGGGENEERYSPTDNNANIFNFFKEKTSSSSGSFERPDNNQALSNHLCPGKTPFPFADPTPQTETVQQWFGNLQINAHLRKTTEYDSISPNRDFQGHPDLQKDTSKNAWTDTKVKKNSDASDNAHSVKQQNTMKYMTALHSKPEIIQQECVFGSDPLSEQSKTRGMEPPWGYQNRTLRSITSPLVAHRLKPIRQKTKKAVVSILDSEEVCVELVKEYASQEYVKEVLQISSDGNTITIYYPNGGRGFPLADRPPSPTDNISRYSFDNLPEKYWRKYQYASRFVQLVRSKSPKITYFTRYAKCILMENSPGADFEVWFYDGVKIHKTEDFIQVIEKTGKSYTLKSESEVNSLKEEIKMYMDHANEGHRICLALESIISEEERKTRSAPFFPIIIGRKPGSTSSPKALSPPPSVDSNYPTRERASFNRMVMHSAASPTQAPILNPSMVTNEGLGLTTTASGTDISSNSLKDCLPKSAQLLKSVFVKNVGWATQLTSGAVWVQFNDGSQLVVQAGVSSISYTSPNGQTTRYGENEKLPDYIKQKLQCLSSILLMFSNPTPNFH

[3] = target: EphA7 (Homo sapiens, UniProt Q15375)
Sequence of EphA7 (Q15375 whole entry): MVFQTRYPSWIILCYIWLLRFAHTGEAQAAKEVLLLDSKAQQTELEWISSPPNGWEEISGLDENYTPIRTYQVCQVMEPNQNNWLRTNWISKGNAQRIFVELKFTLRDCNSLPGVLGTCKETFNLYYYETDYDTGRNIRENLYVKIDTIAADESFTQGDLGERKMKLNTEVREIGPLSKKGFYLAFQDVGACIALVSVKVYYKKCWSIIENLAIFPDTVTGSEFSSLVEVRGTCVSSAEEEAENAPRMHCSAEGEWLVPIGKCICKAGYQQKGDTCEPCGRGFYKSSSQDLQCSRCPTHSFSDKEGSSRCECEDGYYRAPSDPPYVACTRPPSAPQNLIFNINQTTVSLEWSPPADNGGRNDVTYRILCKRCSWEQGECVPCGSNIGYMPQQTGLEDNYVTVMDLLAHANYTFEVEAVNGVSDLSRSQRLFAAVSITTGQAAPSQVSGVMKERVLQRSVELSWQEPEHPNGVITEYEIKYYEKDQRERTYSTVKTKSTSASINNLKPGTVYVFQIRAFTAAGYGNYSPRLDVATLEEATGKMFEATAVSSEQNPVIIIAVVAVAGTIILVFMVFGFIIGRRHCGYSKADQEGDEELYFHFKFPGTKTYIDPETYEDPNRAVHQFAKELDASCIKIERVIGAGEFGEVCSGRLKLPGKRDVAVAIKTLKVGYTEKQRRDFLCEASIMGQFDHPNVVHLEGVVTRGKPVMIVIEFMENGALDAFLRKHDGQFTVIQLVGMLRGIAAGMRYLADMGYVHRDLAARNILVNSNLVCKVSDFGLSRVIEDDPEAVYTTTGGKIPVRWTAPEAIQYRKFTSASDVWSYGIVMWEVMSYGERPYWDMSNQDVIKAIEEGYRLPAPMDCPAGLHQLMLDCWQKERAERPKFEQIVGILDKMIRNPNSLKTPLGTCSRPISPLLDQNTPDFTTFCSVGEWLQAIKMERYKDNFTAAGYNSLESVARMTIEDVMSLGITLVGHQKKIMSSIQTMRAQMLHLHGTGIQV

[4] = target: T2, CASK (Homo sapiens, UniProt O14936)
T2 sequence (O14936 1-926): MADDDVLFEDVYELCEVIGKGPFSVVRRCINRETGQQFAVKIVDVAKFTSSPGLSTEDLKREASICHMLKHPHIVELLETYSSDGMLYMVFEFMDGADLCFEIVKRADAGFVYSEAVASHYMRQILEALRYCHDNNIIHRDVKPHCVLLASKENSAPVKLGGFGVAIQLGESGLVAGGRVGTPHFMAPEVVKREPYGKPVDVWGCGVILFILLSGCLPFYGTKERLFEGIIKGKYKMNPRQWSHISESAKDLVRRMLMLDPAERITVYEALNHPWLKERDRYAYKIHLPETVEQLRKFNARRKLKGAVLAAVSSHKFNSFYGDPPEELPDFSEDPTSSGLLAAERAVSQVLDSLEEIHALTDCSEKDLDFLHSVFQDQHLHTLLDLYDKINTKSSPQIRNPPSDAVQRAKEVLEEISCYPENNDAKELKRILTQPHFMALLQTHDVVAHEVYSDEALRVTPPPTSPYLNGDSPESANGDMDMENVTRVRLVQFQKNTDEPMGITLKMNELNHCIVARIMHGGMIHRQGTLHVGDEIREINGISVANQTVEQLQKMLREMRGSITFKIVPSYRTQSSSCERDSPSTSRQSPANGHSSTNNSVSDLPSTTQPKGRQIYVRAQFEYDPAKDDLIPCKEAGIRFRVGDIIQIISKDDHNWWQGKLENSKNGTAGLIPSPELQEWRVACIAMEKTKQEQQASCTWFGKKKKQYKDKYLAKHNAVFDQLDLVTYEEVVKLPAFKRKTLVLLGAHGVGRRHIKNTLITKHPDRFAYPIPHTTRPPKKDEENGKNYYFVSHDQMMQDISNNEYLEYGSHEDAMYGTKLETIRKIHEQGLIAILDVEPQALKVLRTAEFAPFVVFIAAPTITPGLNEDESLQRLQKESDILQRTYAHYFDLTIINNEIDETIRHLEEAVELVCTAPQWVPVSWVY

Sequence of FGFR2 (P21802 whole entry): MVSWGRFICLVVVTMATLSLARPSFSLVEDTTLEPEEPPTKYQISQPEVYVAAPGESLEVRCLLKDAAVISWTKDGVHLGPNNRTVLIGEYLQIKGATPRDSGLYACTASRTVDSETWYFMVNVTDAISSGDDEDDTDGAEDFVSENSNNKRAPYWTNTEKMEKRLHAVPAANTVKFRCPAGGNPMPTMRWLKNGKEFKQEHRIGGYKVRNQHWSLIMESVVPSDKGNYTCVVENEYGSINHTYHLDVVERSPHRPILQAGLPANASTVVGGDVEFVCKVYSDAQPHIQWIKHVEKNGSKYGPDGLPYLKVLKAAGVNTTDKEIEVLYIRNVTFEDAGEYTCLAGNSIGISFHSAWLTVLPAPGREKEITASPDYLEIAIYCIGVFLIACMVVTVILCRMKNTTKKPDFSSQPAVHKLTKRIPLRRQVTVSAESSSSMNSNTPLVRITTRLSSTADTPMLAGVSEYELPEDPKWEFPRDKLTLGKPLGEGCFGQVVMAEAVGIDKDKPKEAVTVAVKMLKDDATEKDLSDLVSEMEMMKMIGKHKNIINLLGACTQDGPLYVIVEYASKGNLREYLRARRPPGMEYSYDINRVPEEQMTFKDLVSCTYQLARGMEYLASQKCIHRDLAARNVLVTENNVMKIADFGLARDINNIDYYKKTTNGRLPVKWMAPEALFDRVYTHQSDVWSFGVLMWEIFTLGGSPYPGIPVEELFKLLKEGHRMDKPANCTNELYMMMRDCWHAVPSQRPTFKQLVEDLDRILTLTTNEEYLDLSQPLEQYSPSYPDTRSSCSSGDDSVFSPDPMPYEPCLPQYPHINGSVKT

SMILES: Cc1cccc(-c2ccc(-c3cc4cnc(NC(CO)CO)nc4n(CCCCN)c3=O)c(Cl)c2)n1 [compound 24, 8-(4-Aminobutyl)-6-(2-chloro-4-(6-methylpyridin-2-yl)phenyl)-2-((1,3-dihydroxypropan-2-yl)amino)pyrido[2,3-d]pyrimidin-7(8H)-one]
- ΔTm MR24 (24) [1]: 0.8 °C
- ΔTm MR24 (24) [2]: 1.3 °C
- ΔTm MR24 (24) [3]: 0.3 °C
- ΔTm MR24 (24) [4]: -0.4 °C

SMILES: Cc1cccc(-c2ccc(-c3cc4cnc(NCCCc5ccc(N)cc5)nc4n(CCCCN)c3=O)c(Cl)c2)n1 [compound 25, 8-(4-Aminobutyl)-2-((3-(4-aminophenyl)propyl)amino)-6-(2-chloro-4-(6-methylpyridin-2-yl)phenyl)pyrido[2,3-d]pyrimidin-7(8H)-one]
- ΔTm 25 [1]: 1.7 °C
- ΔTm 25 [2]: 6.7 °C
- ΔTm 25 [3]: 5.1 °C
- ΔTm 25 [4]: -0.4 °C

SMILES: CNc1ncc2cc(-c3ccc(-c4cccc(C)n4)cc3Cl)c(=O)n(CCC3CCNCC3)c2n1 [compound 22, 6-(2-Chloro-4-(6-methylpyridin-2-yl)phenyl)-2-(methylamino)-8-(2-(piperidin-4-yl)ethyl)pyrido[2,3-d]pyrimidin-7(8H)-one]
- ΔTm 22 [1]: 3.9 °C
- ΔTm 22 [2]: 7.3 °C
- ΔTm 22 [3]: 7.7 °C
- ΔTm 22 [4]: 0.3 °C

SMILES: CNc1ncc2cc(-c3ccc(-c4cccc(C)n4)cc3Cl)c(=O)n(CCCCN)c2n1 [compound 20, MRLW5]
- ΔTm MRLW5 (20) [1]: 1.9 °C
- ΔTm MRLW5 (20) [2]: 5.2 °C
- ΔTm MRLW5 (20) [3]: 7.7 °C
- ΔTm MRLW5 (20) [4]: -0.5 °C

SMILES: Cc1cccc(-c2ccc(-c3cc4cnc(NCCCN5CCOCC5)nc4n(CCCCN)c3=O)c(Cl)c2)n1 [compound 26, MR26]
- ΔTm MR26 (26) [1]: 1.4 °C
- ΔTm MR26 (26) [2]: 5.1 °C
- ΔTm MR26 (26) [3]: 2.7 °C
- ΔTm MR26 (26) [4]: -0.3 °C

SMILES: CNc1ncc2cc(-c3ccc(-c4cccc(C)n4)cc3Cl)c(=O)n(C[C@H]3CC[C@H](N)CC3)c2n1 [compound 23, 23]
- ΔTm 23 [1]: 2.9 °C
- ΔTm 23 [2]: 7.1 °C
- ΔTm 23 [3]: 10.4 °C
- ΔTm 23 [4]: -0.4 °C
